Reference: patent publication US4554367A, “Phosphonium organohalogenostannates-IV” (priority 1982, dated 1985)

Columns and labels:
Proteus vulgaris = assay: MIC against bacteria, strain A; format: cell-based; details: 24 h, 30° C., tested at 100 or 300 mg/liter
Method: (§1) Determination of the minimum inhibitory concentration (MIC) against bacteria
(§2) ONCs (cultures incubated overnight) of the bacteria strains A-F grown in Caso-Peptone broth (Merck) are each diluted […] in saline. An amount of the suspension is introduced into Caso-Peptone broth such that the bacteria are again diluted 1:1,000. The cultures are treated with 100 or 300 mg/liter of the phosphonium stannates shown in Table B. After incubation at 30° C. in a shaking water bath for 24 hours, the cultures are evaluated on the basis of cloudiness. The MIC is the concentration at which the broth is not clouded by bacterial growth.

Pseudomonas aeruginosa = assay: MIC against bacteria, strain B; format: cell-based; details: 24 h, 30° C., tested at 100 or 300 mg/liter
Method: as §1, §2

Enterobacter aerogenes = assay: MIC against bacteria, strain C; format: cell-based; details: 24 h, 30° C., tested at 100 or 300 mg/liter
Method: as §1, §2

Serratia marcenscens = assay: MIC against bacteria, strain D; format: cell-based; details: 24 h, 30° C., tested at 100 or 300 mg/liter
Method: as §1, §2

[1] = tested on: Alkaligenes denitrificans; assay: MIC against bacteria, strain E; format: cell-based; details: 24 h, 30° C., tested at 100 or 300 mg/liter
Method: as §1, §2

Bacillus subtilis = assay: MIC against bacteria, strain F; format: cell-based; details: 24 h, 30° C., tested at 100 or 300 mg/liter
Method: as §1, §2

Aspergillus niger = assay: MIC against fungi, strain G; format: cell-based; details: malt extract agar
Method: (§3) Determination of the minimum inhibitory concentration (MIC) against fungi
(§4) The investigation is carried out in malt extract agar (Merck) by the known agar incorporation test using the fungi

Aspergillus phoenicia = assay: MIC against fungi, strain H; format: cell-based; details: malt extract agar
Method: as §3, §4
(§5) For inhibition, the various compounds are in each case added in amounts such that concentrations of […] results in the agar. The concentrations (mg/liter) required for inhibition of the growth of the fungi (starting from traces of fungi dripped on) are illustrated in Table D.

Penicillium funiculosum = assay: MIC against fungi, strain I; format: cell-based; details: malt extract agar
Method: as §3, §4
I Penicillium funiculosum
as §5

Alternaria alternata = assay: MIC against fungi, strain J; format: cell-based; details: malt extract agar
Method: as §3, §4, §5

[2] = tested on: Cladosporium cladosporioides; assay: MIC against fungi, strain K; format: cell-based; details: malt extract agar
Method: as §3, §4
K Cladosporium cladosporioides
as §5

Candida albicans = assay: MIC against fungi, strain L; format: cell-based; details: malt extract agar
Method: as §3, §4, §5

Endomyces geotrichum = assay: MIC against fungi, strain M; format: cell-based; details: malt extract agar
Method: as §3, §4, §5

Aureobasidium pullulans = assay: MIC against fungi, strain N; format: cell-based; details: malt extract agar
Method: as §3, §4
N Aureobasidium pullulans
as §5

Chaetomium globosum = assay: MIC against fungi, strain O; format: cell-based; details: malt extract agar
Method: as §3, §4, §5

Chlorella vulgaris = assay: Action against Chlorella vulgaris; format: cell-based; design: key to Growth in the medium: 1: no growth in the medium, 3 ppm have a growthinhibiting action; key to Growth on the agar: 2: no growth on the agar, 3 ppm have destroyed the algae within 6 hours; details: 3 mg/liter
Method: Determination of the action against algae
A Chlorella vulgaris culture grown for 14 days in algae nutrient medium is diluted 1:200 in algae nutrient medium. Each of the compounds listed in Table E is then added such that a concentration of 3 mg/liter results. After incubation for 6 hours, 10 μl are in each case withdrawn and dripped onto algae agar in order to determine the destructive action.

[3] = tested on: Enteromorpha intestinalis; assay: Action against Enteromorpha intestinalis; format: cell-based
Method: (b) Enteromorpha intestinalis
The action against the green alga Enteromorpha most important in sea water fouling is investigated in sterile-filtered sea water containing Erd-Schreiber solution. The solution is composed of a nutrient extract, phosphate and nitrate. Incubation of the Enteromorpha intestinalis takes place in a light thermostat at 18° C. under a 14 hours light/10 hours dark cycle.
The algae grown in this manner are exposed for a short time (4 hours), in sea water, to the products to be investigated. The minimum killing concentration (MKC) is determined by removing the algae from the sea water containing a certain amount of algicide at the end of the period of action, washing them and investigating them for growth or destruction after renewed incubation in fresh sea water for 6 to 8 weeks.
The minimum killing concentration (MKC) is the amount of substance required to harm the alga within a certain period of time to the extent that it can no longer recover in fresh sea water and dies off.
To determine the inhibitory concentration (MIC), the alga is kept in sea water containing biocide throughout the entire duration of the experiment (concentration tested: 0.1 and 0.5 mg/liter).

Artemia salina = assay: Action against Artemia salina; format: in vivo; design: key: 0: nauplii not affected; 1: slight change; 1-2: nauplii affected; 2: nauplii severely affected; 2-3: almost all nauplii dead; 3: all nauplii dead
Description: Determination of the action against Artemia salina
The commercially available eggs are caused to hatch under powerful aeration. […]

Venturia inaequalis = assay: Residual protective action against Venturia inaequalis on apple shoots; format: in vivo; details: 0.02% of active substance, 15 days after infection
Method: Residual protective action against Venturia inaequalis on apple shoots
Apple cuttings with fresh shoots 10-20 cm long were sprayed with a spray liquor (0.02% of active substance) prepared from a wettable powder of the active substance. After 24 hours, the treated plants were infected with a conidia suspension of the fungus. The plants were then incubated at 90-100% relative atmospheric humidity for 5 days and were placed in a greenhouse at 20°-24° C. for 10 further days. The scab attack was evaluated 15 days after the infection. Compounds nos. 18, 5 and 9 and others inhibited the disease attack to less than 10%.

## CCCCCCCCCCCCCC[P+](CCCC)(CCCC)CCCC.[CH3][Sn-]([CH3])([Cl])([Cl])[Cl] [Example 20]
Proteus vulgaris
  MIC: 100 µg/mL
Pseudomonas aeruginosa
  MIC: 100 µg/mL
Enterobacter aerogenes
  MIC: 100 µg/mL
Serratia marcenscens
  MIC: 100 µg/mL
[1]
  MIC: 100 µg/mL
Bacillus subtilis
  MIC: 100 µg/mL
Aspergillus niger
  MIC against fungi: 50 µg/mL
Aspergillus phoenicia
  MIC against fungi: 50 µg/mL
Penicillium funiculosum
  MIC against fungi: 10 µg/mL
Alternaria alternata
  MIC against fungi: 50 µg/mL
[2]
  MIC against fungi: 10 µg/mL
Candida albicans
  MIC against fungi: 10 µg/mL
Endomyces geotrichum
  MIC against fungi: 10 µg/mL
Aureobasidium pullulans
  MIC against fungi: 10 µg/mL
Chaetomium globosum
  MIC against fungi: 10 µg/mL
Chlorella vulgaris; 6 hours exposure (algae-destruction action)
  Growth on the agar: 2
Chlorella vulgaris; 14 days (inhibition of growth)
  Growth in the medium: 1
[3]; 5 mg/liter, 4 hours exposure in sea water, re-incubation 6 to 8 weeks
  Destruction 5 mg/liter: yes
[3]; kept in sea water containing biocide throughout, tested 0.1 and 0.5 mg/liter
  MIC: > 0.5 µg/mL
Artemia salina; 0.25 mg/liter, 6 hours
  Action against Artemia salina: 0
Artemia salina; 0.25 mg/liter, 24 hours
  Action against Artemia salina: 1-2
Artemia salina; 0.25 mg/liter, 48 hours
  Action against Artemia salina: 2-3
Artemia salina; 0.5 mg/liter, 6 hours
  Action against Artemia salina: 1
Artemia salina; 0.5 mg/liter, 24 hours
  Action against Artemia salina: 2
Artemia salina; 0.5 mg/liter, 48 hours
  Action against Artemia salina: 3
Artemia salina; 1 mg/liter, 6 hours
  Action against Artemia salina: 2
Artemia salina; 1 mg/liter, 24 hours
  Action against Artemia salina: 2-3
Artemia salina; 1 mg/liter, 48 hours
  Action against Artemia salina: 3
Artemia salina; 2.5 mg/liter, 6 hours
  Action against Artemia salina: 1-2
Artemia salina; 2.5 mg/liter, 24 hours
  Action against Artemia salina: 3
Artemia salina; 2.5 mg/liter, 48 hours
  Action against Artemia salina: 3

## CCCCCCCCCCCCCC[P+](CCCC)(CCCC)CCCC.[Cl][Sn-]([Cl])([CH]1CCCCC1)([CH]1CCCCC1)[CH]1CCCCC1 [Example 18, tri-n-bytyl-n-tetradecyl-phosphonium tricyclohexyldichlorostannate]
Venturia inaequalis
  disease (scab) attack (inhibited to less than): less than 10%
